Results published in PMC6743424, “Phenolic acid phenethylesters and their corresponding ketones: Inhibition of 5‐lipoxygenase and stability in human blood and HepaRG cells” (Pharmacology Research & Perspectives, 2019).
Blank lines part the entries; values can stand above or below the molecule they belong to.

Experiments:
HepaRG cells = experiment: Metabolite identification by LC‐MS/MS in HepaRG cell culture; type: in vitro ADME, human; details: 50 µmol/L, 7.5 and 60 minutes
Procedure: Differentiated HepaRG cells, plated in 24 well plates, were washed with hepatocyte suspension medium (Williams E‐medium without phenol red, supplemented with 2 mmol/L Glutamax and […] HEPES) before addition of hepatocyte suspension medium (250 µL/well) containing (30 or 50 µmol/L) of the test compounds or their diluent. Cells were then incubated for 7.5, 15, 30, 60 or 90 minutes at 37°C after which the medium was removed.
In other experiments, LC‐MS/MS analysis was performed to identify metabolites of test compounds that had been incubated with HepaRG cells. First, fifty micromolar standards of the test compounds were diluted 3000‐fold and analyzed using electrospray ionization mass spectrometry on a linear quadrupole ion trap (LTQ‐XL) from Thermo‐Fisher Scientific (San Jose). Full scan spectra were collected using both ionization polarities for confirmation of the intact molecular weight of each compounds based on the expected [M + H]^+ and [M−H]^− pseudo‐molecular ions observed using mass spectrometry. The diluted standards were then subjected to reversed‐phase partition chromatography on an Altima C18 column produced by HiChrom and distributed by VWR (Mississsauga, ON). The LC system was a Dionex Ultimate 3000. The mass spectrometer electrospray source was used at 40 µL/min with a nitrogen sheath gas of 15, a spray voltage of ±4 kV, a capillary voltage of ±35 V, a tube lens of ±175 V and a capillary temperature of 160°C. Samples that had been collected from HepaRG cultures were purified on C18 cartridges and eluted with CH3OH. For the first injection of extracted samples, the MS method consisted of a repeated loop of full scan (m/z 100‐800), product ion scan based on the intact mass determined from infusion of the standards and one product ion scan. […]
Figure 7 Metabolite identification using negative ion LC‐MS/MS in HepaRG cell culture. […] Right panels show the MS and MS/MS of the generated metabolites detected at 60 minutes. […]

5‐LO [1] = biological target: T1, 5‐LO (Homo sapiens, UniProt P09917); experiment: Biosynthesis of 5‐LO products in stimulated HEK293 cells expressing 5‐LO and FLAP; type: cell-based; parameters: expressed in transfected cells; host or cells: HEK293 cells (ATCC), stably transfected; details: 1 μmol/L, 5 min preincubation; 10 μmol/L A23187 + 10 μmol/L arachidonic acid 15 min
T1 sequence (P09917 1-674): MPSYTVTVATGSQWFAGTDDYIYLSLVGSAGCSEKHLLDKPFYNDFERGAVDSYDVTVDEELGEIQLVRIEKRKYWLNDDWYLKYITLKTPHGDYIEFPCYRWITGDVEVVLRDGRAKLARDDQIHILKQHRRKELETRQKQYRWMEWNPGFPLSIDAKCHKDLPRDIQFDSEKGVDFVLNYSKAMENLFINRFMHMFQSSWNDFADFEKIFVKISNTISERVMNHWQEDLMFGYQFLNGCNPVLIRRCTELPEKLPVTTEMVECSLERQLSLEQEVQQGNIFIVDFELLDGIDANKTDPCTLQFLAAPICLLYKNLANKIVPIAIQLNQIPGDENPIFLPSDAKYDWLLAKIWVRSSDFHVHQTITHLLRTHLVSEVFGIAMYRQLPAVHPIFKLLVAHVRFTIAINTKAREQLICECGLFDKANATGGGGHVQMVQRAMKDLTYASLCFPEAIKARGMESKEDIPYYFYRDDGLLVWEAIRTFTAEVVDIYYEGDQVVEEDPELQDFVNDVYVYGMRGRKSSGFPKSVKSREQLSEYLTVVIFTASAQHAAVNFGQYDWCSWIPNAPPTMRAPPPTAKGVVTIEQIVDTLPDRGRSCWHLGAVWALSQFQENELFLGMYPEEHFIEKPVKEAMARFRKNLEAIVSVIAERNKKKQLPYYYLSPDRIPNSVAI
Procedure: HEK293 cells were obtained from ATCC (Manassas) and were cultured in Dulbecco’s Modified Eagle Medium (DMEM) supplemented with 10% fetal bovine serum. Cells were stably transfected with 5‐lipoxygenase and 5‐lipoxygenase activating protein (FLAP) as previously described.31
Transfected HEK293 cells were collected and resuspended in Hank's balanced salt solution (HBSS, Lonza) containing 1.6 mmol/L CaCl2 at a concentration of 5 × 10^5 cells/mL, and were preincubated with each compound at concentration of 1 µmol/L for 5 minutes at 37°C. Cells were then stimulated for 15 minutes at 37°C with the addition of 10 µmol/L calcium ionophore A23187 (Sigma‐Aldrich) and 10 µmol/L arachidonic acid (Cayman Chemical).28 Stimulations were stopped by adding 0.5 volume of cold CH3OH:CH3CN (1:1) containing 100 ng/mL of prostaglandin B2 (PGB2) as internal standard. Samples were stored at −20°C and analyzed for 5‐LO products using reversed‐phase high‐performance liquid chromatography (RP‐HPLC) as described previously.32
Figure 2 The structures of the tested compounds (A) and their effects on the biosynthesis of 5‐LO products in transfected HEK293 cells (B). HEK293 cells expressing 5‐LO and FLAP were incubated in presence of the indicated compounds (1 μmol/L) or their diluent (Control, 0.1% DMSO) for 5 minutes, followed by the addition of 10 μmol/L calcium ionophore A23187 and 10 μmol/L arachidonic acid for 15 minutes. Reactions were then stopped, and samples were processed for analysis of 5‐LO products using RP‐HPLC. Total 5‐LO products measured represent the sum of LTB4, its trans isomers and 5‐hydroxyeicosatetraenoic acid. Data are expressed as means ± SEM of at least three independent experiments. *Difference from control as determined using one‐way ANOVA with Dunnett's multiple comparison test (P < .05)

[2] = parameters: method as in PMID 17394337, PMID 15358316, PMID 19544289; details: carboxylesterase; cited from earlier work
[3] = parameters: method as in PMID 17394337, PMID 15358316, PMID 19544289; details: oral administration to rats; cited from earlier work
5‐LO [4] = biological target: T1, 5‐LO; parameters: endogenous in cells; host or cells: human polymorphonuclear leukocytes isolated from heparinized blood; method as in PMID 22347509, PMID 28680195; details: read-out: IC50 of LT biosynthesis in isolated human neutrophils; cited from earlier work

Metabolites formed in HepaRG cell culture (HepaRG cells): α,β‐unsaturated ketone reduction
SMILES: O=C(/C=C/c1ccc(O)c(O)c1)CCCc1ccccc1 [compound 7]

Metabolites formed in HepaRG cell culture (HepaRG cells): α,β‐unsaturated ketone reduction
SMILES: O=C(/C=C/c1cc(O)ccc1O)CCc1ccccc1 [compound 8]

Metabolites formed in HepaRG cell culture (HepaRG cells): α,β‐unsaturated ketone reduction
SMILES: COc1cc(/C=C/C(=O)CCc2ccccc2)cc(OC)c1O [compound 10, sinapic acid phenethyl ketone]

Inhibition of biosynthesis of 5‐LO products in transfected HEK293 cells (5‐LO [1]): very good inhibitory activity
SMILES: O=C(/C=C/c1cc(O)ccc1O)OCCc1ccccc1 [compound 5]

SMILES: O=C(/C=C/c1ccc(O)c(O)c1)OCCc1ccccc1 [CAPE (2), caffeic acid phenethyl ester, reference compound]
Stability in rat plasma [2]: rapidly hydrolyzed to caffeic acid
Major metabolite in urine [3]: caffeic acid
IC50 (5‐LO [4]): 500 nM
